Earlier results on two compounds are cited in publication PMC11322901 (Chemical Science, 2024).

Data set [1] concerns the target CaM(Ca2+) (Mus musculus, UniProt P0DP26).
For data set [2], the target named is GST. The settings on record: read-out: Ki of monovalent EA inhibitor.

For the compound mastoparan, the “Affinity for CaM(Ca2+)” value in data set [1] was “low nanomolar”. As for `C=C(CC)C(=O)c1ccc(OCC(=O)O)c(Cl)c1Cl` [EA], in data set [2], the Ki was 1 to 5 µM.
